Measurements as given in US20100004333A1, “COMPOSITIONS AND METHODS FOR TREATING CARDIOVASCULAR DISORDERS” (priority 2004, published 2010).

Tests used:
[1] = tested on: New Zealand White rabbits; test: Rabbit aortic balloon-injury model: intimal hyperplasia; type: in vivo; settings: 9 weeks, FIG. 21; for Protection against balloon injury-induced intimal hyperplasia: 0.02% wt/wt in chow, ABI at end of week three
Method: Rabbit aortic balloon-injury model. Four groups of male New Zealand White rabbits (1.8-2.2 kg, Merunga Farm, Coffs Harbour, Australia), matched for body weight and baseline plasma cholesterol, were fed 100 g per day of normal chow±1% probucol, 0.02% DTBP, or 0.02% BP (wt/wt) for up to nine weeks. Aortic balloon-injury (ABI) was carried out at the end of week three, resulting in complete endothelial denudation. Harvesting of aortas was done after a further 6 weeks (n=6 per group). Aortic lesion assessment was carried out at the 3rd pair of lumber arteries in NZW rabbits as described in Circulation 2003, 107:2031-2036. Statistics. Data are expressed as mean±SEM. One-way ANOVA and the student-Newman-Keul's test were used to evaluate differences between groups, with P<0.05 considered significant.
Materials and methods were as described in Examples 6 and 7, with the following addition. DTBP-s and STBP were synthesized as described in Example 10. A total of 48 New Zealand White rabbits (1.8-2.2 kg) were used for this example. Rabbits were fed normal chow (100 g/day) without (Ctrl, n=12) or with 0.02% DTBP (wt/wt, n=6), 0.02% STBP (wt/wt, n=7), 0.02% DTBP-s (wt/wt, n=11) or 0.1% DTBP-s (wt/wt, n=7) for 9 weeks. Aortic balloon-injury was carried out at the end of week three.

Heme oxygenase-1 mRNA = test: HO-1 mRNA by real time RT-PCR in cultured rabbit aortic smooth muscle cells; type: cell-based; settings: α-tocopherol 50 μM, 24 hours; FIG. 20A
Method: (§1) Materials and methods were principally as described in Examples 6 and 7. Vitamin E (α-tocopherol for cellular studies, α-tocopheryl acetate for in vivo studies) was obtained from Sigma (St. Louis, Mo.). Heme oxygenase-1 mRNA was assessed by real time RT-PCR in rabbit aortic smooth muscle cells cultured for 24 hours in the presence of vehicle (control), probucol (50 μM) or α-tocopherol (50 μM) as described in (Circulation 2004; 110:1855-1860). Re-endothelialization was assessed by Evans blue staining (Circulation 2003; 107:2031-2036) 3 weeks after injury. Intima-to-media ratio of vessels from control rabbits and animals treated with probucol or α-tocopheryl acetate (n=6 per group) was also determined 3 weeks after aortic balloon injury, using 5 serial sections per aortic segment, 100 μm apart.

rabbits = test: Rabbit aortic balloon injury, 3 weeks: re-endothelialization (Evans blue) and intima-to-media ratio, vitamin E; type: in vivo; settings: α-tocopheryl acetate
Method: as §1

Structure (SMILES) | Protection against balloon injury-induced intimal hyperplasia [1] | Induction of HO-1 (mRNA) in vascular smooth muscle cells (Heme oxygenase-1 mRNA) | Intimal hyperplasia (intima-to-media ratio) (rabbits; 3 weeks after aortic balloon injury, FIG. 20C) | Re-endothelialization (Evans blue) (rabbits; 3 weeks after injury, FIG. 20B) | Protection against intimal hyperplasia: 0.02% DTBP-s compared with 0.1% DTBP-s ([1]; 0.1% wt/wt DTBP-s, P<0.05 versus 0.02% DTBP-s)
CC(C)(C)c1cc(S[Se]c2cc(C(C)(C)C)c(O)c(C(C)(C)C)c2)cc(C(C)(C)C)c1O [STBP, 2,6-di-t-butyl-4-(3,5-di-t-butyl-4-hydroxyphenylselanylthio)phenol] | protected to a comparable extent |  |  |  | 
Cc1c(C)c2c(c(C)c1O)CC[C@@](C)(CCC[C@H](C)CCC[C@H](C)CCCC(C)C)O2 [vitamin E, α-tocopherol] |  | failed to induce HO-1 | failed to inhibit intimal hyperplasia | did not promote re-endothelialization | 
CC(C)(C)c1cc(SSc2cc(C(C)(C)C)c(OC(=O)CCC(=O)O)c(C(C)(C)C)c2)cc(C(C)(C)C)c1O [DTBP-s, 4-(2,6-di-t-butyl-4-((3,5-di-t-butyl-4-hydroxyphenyl)disulfanyl)phenoxy)-4-oxobutanoic acid] | significant protection, albeit less effectively |  |  |  | less effectively as that seen with STBP (0.02%, to wt/wt) and DTBP-s (0.1%, wt/wt)
